Experimental data reported in ChEMBL document CHEMBL1129206, “Probing the specificity of the S1 binding site of M222 mutants of subtilisin B. lentus with boronic acid inhibitors” (Bioorg Med Chem Lett, 1996).

Experiments:
Design in all cases: species or system Lederbergia lenta
Subtilisin BL [1] = target: Subtilisin BL (Bacillus lentus, UniProt P29599, M222C)
Subtilisin BL [2] = target: Subtilisin BL (Bacillus lentus, UniProt P29599, M222S)
Subtilisin BL [3] = target: T1, Subtilisin BL (Bacillus lentus, UniProt P29599); test: Competitive inhibition of Subtilisin BL wild type enzyme from Bacillus lentus
T1 sequence (P29599 whole entry): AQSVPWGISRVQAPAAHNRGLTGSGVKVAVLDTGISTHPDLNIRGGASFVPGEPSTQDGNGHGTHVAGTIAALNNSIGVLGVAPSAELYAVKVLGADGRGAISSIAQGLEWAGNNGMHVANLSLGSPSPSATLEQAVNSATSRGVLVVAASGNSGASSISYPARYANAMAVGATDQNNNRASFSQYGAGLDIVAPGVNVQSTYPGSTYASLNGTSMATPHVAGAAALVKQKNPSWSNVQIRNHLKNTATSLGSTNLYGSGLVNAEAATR

| Structure (SMILES) | Ki (Subtilisin BL [1]) [µM] | Ki (Subtilisin BL [2]) [µM] | Ki (Subtilisin BL [3]) [µM] |
| --- | --- | --- | --- |
| OB(O)c1cccc(-c2ccccc2)c1 | 31 | 69 | 327 |
| OB(O)c1ccc(Cl)cc1Cl | 18 | 8 | 9.2 |
| Nc1cccc(B(O)O)c1 | 204 | 73 | 150 |
| OB(O)c1ccc(Br)cc1 | 23 | 10 | 23 |
| COc1ccc(B(O)O)cc1 | 757 | 310 | 577 |
| OB(O)CCc1ccc(Cl)cc1 | 233 | 110 | 325 |
| OB(O)CCc1ccc2ccccc2c1 | > 1000 | > 1000 | 1580 |
| COc1ccc(CCB(O)O)cc1 | 314 | 219 | 986 |
| OB(O)c1ccccc1 [PHENYLBORONIC ACID] | 155 | 96 | 141 |
